Measurements: US20130267516A1, “SUBSTITUTED CYCLOPENTYL-AZINES AS CASR-ACTIVE COMPOUNDS” (LEO PHARMA A/S, priority 2010, published 2013)

The compounds below were run against T1, human CaSR (Homo sapiens, UniProt P41180) (assay: Functional whole cell assay (modulation of human CaSR), IP1 accumulation in CHO-K1 cells). Settings: CHO-K1 cells stably expressing human CaSR, final Ca2+ 1.9 mM, IP1 readout; concentration giving 50% of maximum agonistic response.
T1 construct: The ORF coding for the human CaSR (genebank: NM_000388)
T1 sequence (P41180 20-1078): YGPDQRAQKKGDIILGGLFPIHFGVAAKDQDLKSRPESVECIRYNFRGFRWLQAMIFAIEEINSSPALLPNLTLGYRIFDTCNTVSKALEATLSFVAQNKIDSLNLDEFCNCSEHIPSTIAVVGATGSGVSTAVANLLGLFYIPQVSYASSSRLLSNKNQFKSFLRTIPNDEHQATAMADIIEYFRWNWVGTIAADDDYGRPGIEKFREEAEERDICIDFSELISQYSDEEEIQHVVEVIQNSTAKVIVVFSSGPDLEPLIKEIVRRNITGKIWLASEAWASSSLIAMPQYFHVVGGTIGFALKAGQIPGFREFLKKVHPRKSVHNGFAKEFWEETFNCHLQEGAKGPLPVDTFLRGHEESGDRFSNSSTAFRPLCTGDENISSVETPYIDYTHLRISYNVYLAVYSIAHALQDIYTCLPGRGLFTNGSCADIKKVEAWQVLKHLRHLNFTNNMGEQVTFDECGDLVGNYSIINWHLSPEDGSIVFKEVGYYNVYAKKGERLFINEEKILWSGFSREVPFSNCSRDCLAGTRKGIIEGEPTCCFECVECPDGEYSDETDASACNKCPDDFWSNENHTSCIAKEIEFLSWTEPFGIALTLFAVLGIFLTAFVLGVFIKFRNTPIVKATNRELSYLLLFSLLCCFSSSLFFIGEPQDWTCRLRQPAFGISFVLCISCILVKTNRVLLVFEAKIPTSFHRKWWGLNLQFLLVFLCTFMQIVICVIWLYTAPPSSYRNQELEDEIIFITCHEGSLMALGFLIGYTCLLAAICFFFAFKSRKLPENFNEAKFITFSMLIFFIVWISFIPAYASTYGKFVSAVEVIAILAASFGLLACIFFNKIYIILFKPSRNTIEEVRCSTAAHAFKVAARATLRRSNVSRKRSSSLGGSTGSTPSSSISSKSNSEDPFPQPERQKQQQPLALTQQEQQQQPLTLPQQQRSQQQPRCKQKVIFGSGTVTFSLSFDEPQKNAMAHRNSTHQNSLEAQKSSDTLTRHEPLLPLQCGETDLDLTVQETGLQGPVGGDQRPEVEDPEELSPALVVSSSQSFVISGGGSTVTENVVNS
Assay type: cell-based
From the text: The assay investigates a compound's functional ability to act as a biological positive modulator on the human CaSR. Activation of the receptor expressed on CHO-K1 cells is detected through the G alpha q pathway, the activation of phospholipase C and the accumulation of intracellular inositol phosphate (IP) as described earlier [Sandrine Ferry, Bruno Chatel, Robert H. Dodd, Christine Lair, Danielle Gully, Jean-Pierre Maffrand, and Martial Ruat. Effects of Divalent Cations and of a Calcimimetic on Adrenocorticotropic Hormone Release in Pituitary Tumor Cells. Biochemical and biophysical research Communications 238, 866-873 (1997)]. The human CaSR is stably expressed on a CHO-K1 cell clone, stimulated with a basal level of calcium and challenged with the tested compound. The level of IP1 is determined using the IP-One Terbium htrf kit (Cisbio, France). CHO-K1 cells not transfected with the CaSR fail to elicit an IP1 response upon calcium and/or compound stimulation.
The ORF coding for the human CaSR (genebank: NM_000388) was acquired from Invitrogen Corp, USA and subsequently cloned into the mammalian expression vector pCDA3.1.
CHO-K1 cells were transfected using Lipofectamine according to manufacturer's protocol (400.000 cells/well were seeded in a 6-well plate and transfected after 24 hours using 2 μg DNA and 5 μl lipofectamine). After another 24 hours the cells were detached, seeded and subjected to 1 mg/ml of G-418. Following 7 days growth single clones were picked, the CaSR expression evaluated using the 5C10 antibody against CaSR, the clones with the highest expression were selected and tested for functional response. The preferred clone was cultured according to standard procedures described in ATCC (American Type Culture Collection) protocols for CHO-K1 with the addition of 500 μg/ml G-418.
On the assay day, cells were thawed, harvested and resuspended to 4*10^6 cells/ml in stimulation buffer (containing: Hepes 10 mM, MgCl2 0.5 mM, KCl 4.2 mM, NaCl 146 mM, glucose 5.5 mM, LiCl 50 mM, BSA 0.5% at pH 7.4). Ten μl cell solution was pipetted into wells of a white 384-well plate (Perkin Elmer Optiplate) containing 2 μl compound diluted in assay buffer (containing: Hepes 10 mM, MgCl2 0.5 mM, KCl 4.2 mM, NaCl 146 mM, glucose 5.5 mM, LiCl 50 mM, CaCl2 11.4 mM at pH 7.4), resulting in a final Ca^2+ concentration of 1.9 mM. After compound stimulation for 1 hour at 37° C. and 15 min at room temperature, 10 ul of IP-One assay detection reagent (prepared as described by the IP-One assay kit manufacturer) was added and the plate was incubated for another 1 hour at room temperature. Finally the plate was read using a Perkin Elmer EnVision, according to the protocol supplied by the IP-One assay kit manufacturer. The FRET ratio was calculated by dividing the 665 nm emission signal with that of the 615 nm.
The molar concentration of a compound that produces 50% of the maximum agonistic response (the […] value) is calculated according to the equation “General sigmoidal curve with Hill slope, a to d” (Equation 1). This model describes a sigmoidal curve with an adjustable baseline. The equation can be used to fit curves where response is either increasing or decreasing with respect to the independent variable, X.
y=(a−d)/(1+(x/c)̂b)+d Equation 1.
x=concentration of tested compound y=response (%) a=min response as compound concentration approaches 0 d=max response as concentration of tested compound is increasing c=IC50 for the curve b=Hill coefficient or curve slope

**Q.** With COc1cc([C@@H](C)N[C@H]2CC[C@@H](c3ccc(NCCS(N)(=O)=O)nc3)C2)ccc1F [Compound 113, 2-[[5-[(1R,3S)-3-[[(1R)-1-(4-Fluoro-3-methoxyphenyl)ethyl]amino]cyclopentyl]-2-pyridyl]amino]ethanesulfonamide] as the compound, how does the EC50 read?
**A.** < 200 nM

**Q.** With C[C@@H](N[C@H]1CC[C@@H](c2ccc(NCCNCCO)nc2)C1)c1cccc2ccccc12.O=CO.O=CO.O=CO [Compound 101, 2-[2-[[5-[(1R,3S)-3-[[(1R)-1-(1-Naphthyl)ethyl]amino]cyclopentyl]-2-pyridyl]amino]ethylamino]ethanol] as the compound, how does the EC50 read?
**A.** < 200 nM

**Q.** How did the EC50 turn out when COc1cc([C@@H](C)N[C@H]2CC[C@@H](c3ccc(N4CCNC(=O)C4)nc3)C2)ccc1F [Compound 109, 4-[5-[(1R,3S)-3-[[(1R)-1-(4-Fluoro-3-methoxy-phenyl)ethyl]amino]cyclopentyl]-2-pyridyl]piperazin-2-one] was run?
**A.** < 200 nM

**Q.** With COc1cc([C@@H](C)N[C@H]2CC[C@@H](c3ccc(NCC(O)CO)nc3)C2)ccc1F (stereo partly drawn) [Compound 115, 3-[[5-[(1R,3S)-3-[[(1R)-1-(4-Fluoro-3-methoxyphenyl)ethyl]amino]cyclopentyl]-2-pyridyl]amino]propane-1,2-diol] as the compound, how does the EC50 read?
**A.** 200 to 1000 nM

**Q.** COc1cc([C@@H](C)N[C@H]2CC[C@@H](c3ccc(N4CCN(C(C)=O)CC4)nc3)C2)ccc1F [Compound 116, 1-[4-[5-[(1R,3S)-3-[[(1R)-1-(4-Fluoro-3-methoxyphenyl)ethyl]amino]cyclopentyl]-2-pyridyl]piperazin-1-yl]ethanone] was tested. Which EC50 did it give?
**A.** < 200 nM

**Q.** COc1cc([C@@H](C)N[C@H]2CC[C@@H](c3cnc(N4CCN(C(C)=O)CC4)nc3)C2)ccc1F.O=CO [Compound 127, 1-[4-[5-[(1R,3S)-3-[[(1R)-1-(4-Fluoro-3-methoxy-phenyl)ethyl]amino]cyclopentyl]pyrimidin-2-yl]piperazin-1-yl]ethanone] was tested. Which EC50 did it give?
**A.** 200 to 1000 nM

**Q.** With COc1cc([C@@H](C)N[C@H]2CC[C@@H](c3ccc(NC4CCNCC4)nc3)C2)ccc1F [Compound 107, 5-[(1R,3S)-3-[[(1R)-1-(4-Fluoro-3-methoxy-phenyl)ethyl]amino]cyclopentyl]-N-(4-piperidyl)pyridin-2-amine] as the compound, how does the EC50 read?
**A.** < 200 nM

**Q.** Which EC50 does the source give for COc1cc([C@@H](C)N[C@H]2CC[C@@H](c3cnc(N4CCNC(=O)C4)nc3)C2)ccc1F [Compound 126, 4-[5-[(1R,3S)-3-[[(1R)-1-(4-Fluoro-3-methoxy-phenyl)ethyl]amino]cyclopentyl]pyrimidin-2-yl]piperazin-2-one] here?
**A.** < 200 nM
